Data published in article PMC11073913 (Archiv der Pharmazie, 2024).
Where “and” joins values, the source holds several entries; their conditions need not be identical. Equal entries are not always repeated. Where two headings read alike, the source gives them in different places.

Legend:
[1] = test system: LPS-induced IL-6 production in RAW 264.7 cells; details: cells treated with 25 μM compound, LPS-activated RAW 264.7
human recombinant COX-2 = molecular target: T1, human recombinant COX-2 (Homo sapiens, UniProt P35354); assay: In vitro COX-2 inhibitory assay; type: biochemical
T1 sequence (P35354 18-604): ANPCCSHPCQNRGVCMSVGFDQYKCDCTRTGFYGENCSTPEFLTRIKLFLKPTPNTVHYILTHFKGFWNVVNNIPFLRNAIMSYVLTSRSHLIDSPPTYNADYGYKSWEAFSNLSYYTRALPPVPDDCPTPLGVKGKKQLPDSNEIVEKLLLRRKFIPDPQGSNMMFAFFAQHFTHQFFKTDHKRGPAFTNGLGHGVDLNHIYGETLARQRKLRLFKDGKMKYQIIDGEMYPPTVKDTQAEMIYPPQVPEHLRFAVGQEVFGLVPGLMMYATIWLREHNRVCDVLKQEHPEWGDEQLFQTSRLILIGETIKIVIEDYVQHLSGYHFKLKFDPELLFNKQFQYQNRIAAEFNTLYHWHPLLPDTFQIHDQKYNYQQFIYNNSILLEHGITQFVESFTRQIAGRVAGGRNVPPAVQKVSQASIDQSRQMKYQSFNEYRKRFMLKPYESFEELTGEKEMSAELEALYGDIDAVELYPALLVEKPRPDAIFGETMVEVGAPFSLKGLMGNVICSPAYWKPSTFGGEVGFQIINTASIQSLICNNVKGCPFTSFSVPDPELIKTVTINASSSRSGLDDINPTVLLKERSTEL

ovine COX-1 = molecular target: T2, ovine COX-1 (Ovis aries, UniProt P05979); assay: In vitro COX-1 inhibitory assay; type: biochemical
T2 sequence (P05979 25-600): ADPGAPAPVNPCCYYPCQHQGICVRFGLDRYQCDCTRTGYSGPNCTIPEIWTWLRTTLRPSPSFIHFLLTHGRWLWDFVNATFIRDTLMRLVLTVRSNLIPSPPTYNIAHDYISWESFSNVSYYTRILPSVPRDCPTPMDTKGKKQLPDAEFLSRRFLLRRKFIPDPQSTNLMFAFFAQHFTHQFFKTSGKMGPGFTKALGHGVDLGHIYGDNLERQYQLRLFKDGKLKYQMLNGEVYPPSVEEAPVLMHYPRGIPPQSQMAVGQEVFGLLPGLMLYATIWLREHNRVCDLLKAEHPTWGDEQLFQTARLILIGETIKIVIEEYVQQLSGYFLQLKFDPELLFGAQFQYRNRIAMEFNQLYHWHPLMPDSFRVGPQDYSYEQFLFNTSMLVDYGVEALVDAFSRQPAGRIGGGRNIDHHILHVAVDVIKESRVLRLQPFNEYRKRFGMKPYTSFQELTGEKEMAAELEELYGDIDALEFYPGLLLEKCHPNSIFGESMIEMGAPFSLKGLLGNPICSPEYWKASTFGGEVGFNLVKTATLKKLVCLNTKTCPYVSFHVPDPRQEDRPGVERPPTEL

[2] = test system: LPS-induced ROS production in RAW 264.7 cells; assay: cells; details: Mus musculus, RAW264.7, 18 h, read-out: ROS (IC50)
soybean 15-LOX = molecular target: T3, soybean 15-LOX (Glycine max, UniProt P08170); assay: In vitro 15-LOX inhibitory assay; type: biochemical
T3 sequence (P08170 1-839): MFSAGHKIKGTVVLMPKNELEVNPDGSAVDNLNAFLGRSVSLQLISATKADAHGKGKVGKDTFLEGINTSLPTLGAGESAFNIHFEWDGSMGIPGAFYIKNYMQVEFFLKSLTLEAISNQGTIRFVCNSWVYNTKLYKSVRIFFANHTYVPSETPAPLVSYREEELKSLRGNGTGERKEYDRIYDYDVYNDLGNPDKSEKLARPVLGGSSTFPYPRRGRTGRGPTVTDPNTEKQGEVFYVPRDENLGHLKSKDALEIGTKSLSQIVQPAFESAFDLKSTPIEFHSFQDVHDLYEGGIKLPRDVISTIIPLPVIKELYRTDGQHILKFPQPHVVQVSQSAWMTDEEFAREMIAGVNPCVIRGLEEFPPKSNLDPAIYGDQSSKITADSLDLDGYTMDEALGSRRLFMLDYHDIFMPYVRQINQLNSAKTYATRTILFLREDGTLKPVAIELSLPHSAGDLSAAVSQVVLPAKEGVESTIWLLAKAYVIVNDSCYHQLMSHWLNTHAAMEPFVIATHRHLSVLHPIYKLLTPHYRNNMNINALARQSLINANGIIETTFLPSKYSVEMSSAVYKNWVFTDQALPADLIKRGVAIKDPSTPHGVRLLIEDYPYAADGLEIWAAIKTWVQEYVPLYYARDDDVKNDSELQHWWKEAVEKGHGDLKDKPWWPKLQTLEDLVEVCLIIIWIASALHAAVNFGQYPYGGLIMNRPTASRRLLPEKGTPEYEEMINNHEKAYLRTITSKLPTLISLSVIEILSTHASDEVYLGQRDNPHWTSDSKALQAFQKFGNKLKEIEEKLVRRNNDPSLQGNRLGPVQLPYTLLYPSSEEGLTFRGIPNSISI

[3] = test system: LPS-induced TNF-α production in RAW 264.7 cells; details: cells treated with 25 μM compound, LPS-activated RAW 264.7
[4] = test system: LPS-induced ROS production in RAW 264.7 cells; details: read-out: ROS (IC50), LPS (1 μg/mL) 18 h, mean ± SEM

Row | SMILES | IL-6 level [1] | IC50 (human recombinant COX-2) [µM] | SI (Selectivity index = COX-1 IC50/COX-2 IC50) (human recombinant COX-2; COX-1 IC50/COX-2 IC50) | IC50 (ovine COX-1) [µM] | IC50 [2] [µM] | IC50 (soybean 15-LOX) [µM] | TNF-α level [3] | SI (Selectivity index = COX-1 IC50/COX-2 IC50) (human recombinant COX-2) | IC50 (human recombinant COX-2; read-out: COX2, IC50) [µM] | IC50 [4] [µM] | IC50 (ovine COX-1; read-out: COX1, IC50, ovine COX-1, mean ± SEM) [µM] | IC50 (soybean 15-LOX; read-out: 15-LOX IC50, soybean 15-LOX) [µM]
1 | O=C(CSC1=N/C(=C\c2ccccc2)C(=O)N1c1ccccc1)Nc1ccccc1 [Compound 4a, (Z)-2-[(4-Benzylidene-5-oxo-1-phenyl-4,5-dihydro-1H-imidazol-2-yl)thio]-N-phenylacetamide] | 37.82 ± 1.06 pg/mL | 0.12 ± 0.06 | 62.97 | 7.83 ± 1.19 | 44.6 ± 1.43 | 5.71 ± 2.56 | 57.28 ± 18.75 pg/mL |  |  |  |  | 
2 | COc1ccc2c(c1)c(CC(=O)O)c(C)n2C(=O)c1ccc(Cl)cc1 [Indomethacin, indomethacin, reference compound] |  |  |  |  | 55 ± 1.26 |  |  |  |  |  |  | 
3 | O=C(CSC1=N/C(=C\c2ccccc2)C(=O)N1c1ccccc1)NCc1ccccc1 [Compound 4i, (Z)-N-Benzyl-2-[(4-benzylidene-5-oxo-1-phenyl-4,5-dihydro-1H-imidazol-2-yl)thio]acetamide] | 21.00 pg/mL and 21.00 ± 9.39 pg/mL | 0.09 ± 0.041 | 121.60 | 10.6 ± 1.62 | 21.8 ± 1.26 | 2.82 ± 1.27 | 46.98 ± 25.83 pg/mL |  |  |  |  | 
4 | O=C(CSC1=N/C(=C\c2ccc(Cl)cc2)C(=O)N1c1ccccc1)Nc1ccc(Br)cc1 [Compound 4m, (Z)-N-(4-Bromophenyl)-2-[(4-(4-chlorobenzylidene)-5-oxo-1-phenyl-4,5-dihydro-1H-imidazol-2-yl)thio]acetamide] | 27.16 ± 0.9 pg/mL | 0.18 ± 0.082 | 44.12 | 8 ± 1.31 | 38.4 ± 1.37 | 4.21 ± 1.53 | 27.89 pg/mL and 27.89 ± 0.90 pg/mL |  |  |  |  | 
5 | O=C(CSC1=N/C(=C\c2ccccc2)C(=O)N1c1ccccc1)Nc1ccc(Cl)cc1 [Compound 4c, (Z)-2-[(4-Benzylidene-5-oxo-1-phenyl-4,5-dihydro-1H-imidazol-2-yl)thio]-N-(4-chlorophenyl) acetamide] | 49.08 ± 23.20 pg/mL |  |  |  |  |  | 49.81 ± 23.20 pg/mL | 64.62 | 0.14 ± 0.062 | 61.6 ± 1.51 | 9.12 ± 1.4 | 3.24 ± 1.46
6 | O=C(CSC1=N/C(=C\c2ccc(Cl)cc2)C(=O)N1c1ccccc1)NCc1ccccc1 [Compound 4r, (Z)-N-Benzyl-2-[(4-(4-chlorobenzylidene)-5-oxo-1-phenyl-4,5-dihydro-1H-imidazol-2-yl)thio]acetamide] | 20.29 ± 5.03 pg/mL | 0.13 ± 0.057 | 78.00 | 10.1 ± 1.6 | 72.4 ± 1.85 | 2.47 ± 1.14 | 21.02 ± 5.03 pg/mL |  |  |  |  | 
